The compounds below were run on HBV rcDNA (assay: HepDE19 assay with bDNA quantitation of HBV rcDNA). Details: HepDE19 cells, Tet-free medium, 7 day-incubation, rcDNA measured by Quantigene 2.0 bDNA assay, top concentration 25 μM; read-out: DE-19 bDNA EC50.
Format: cell-based, hepatitis B virus
Procedure, shortened: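 Cytotoxicity (CC50) measured by CellTiter-Glo ATP content in parallel plates, 5,000 cells/well, 4 days. Antiviral EC50 and EC90 derived from HBV rcDNA bDNA levels after 7-day compound exposure (top 25 μM, ½-log 8-point, 0.5% DMSO) of Tet-withdrawn HepDE19 cells at 50,000/well, as % inhibition versus untreated.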

SMILES | EC50
Cn1cnc(COC(=O)NC2CCCCc3c2cn(C)c3C(=O)Nc2ccc(F)c(Cl)c2)n1 (single isomer, unassigned) [Compound 86, (1-Methyl-1H-1,2,4-triazol-3-yl)methyl (1-((3-chloro-4-fluorophenyl)carbamoyl)-2-methyl-2,4,5,6,7,8-hexahydrocyclohepta[c]pyrrol-4-yl)carbamate] | 0.16 µM
Cn1cnc(COC(=O)NC2CCCCc3c2cn(C)c3C(=O)Nc2ccc(F)c(Cl)c2)n1 (single isomer, unassigned) [Compound 89, (1-Methyl-1H-1,2,4-triazol-3-yl)methyl (1-((3-chloro-4-fluorophenyl)carbamoyl)-2-methyl-2,4,5,6,7,8-hexahydrocyclohepta[c]pyrrol-4-yl)carbamate] | 2.9 µM
Cn1cnc(COC(=O)NC2CCc3c2c(C2CC2)n(C)c3C(=O)Nc2ccc(F)c(Cl)c2)n1 (single isomer, unassigned) [Compound 90, (1-Methyl-1H-1,2,4-triazol-3-yl)methyl (1-((3-chloro-4-fluorophenyl)carbamoyl)-3-cyclopropyl-2-methyl-2,4,5,6-tetrahydrocyclopenta[c]pyrrol-4-yl)carbamate] | 0.42 µM
Cn1cnc(COC(=O)NC2CCc3c2c(C2CC2)n(C)c3C(=O)Nc2ccc(F)c(Cl)c2)n1 (single isomer, unassigned) [Compound 91, (1-Methyl-1H-1,2,4-triazol-3-yl)methyl (1-((3-chloro-4-fluorophenyl)carbamoyl)-3-cyclopropyl-2-methyl-2,4,5,6-tetrahydrocyclopenta[c]pyrrol-4-yl)carbamate] | 22 µM
Cc1c2c(c(C(=O)Nc3ccc(F)c(Cl)c3)n1C)CCCC2NC(=O)OCc1ncn(C)n1 (single isomer, unassigned) [Compound 93, (1-Methyl-1H-1,2,4-triazol-3-yl)methyl (1-((3-chloro-4-fluorophenyl)carbamoyl)-2,3-dimethyl-4,5,6,7-tetrahydro-2H-isoindol-4-yl)carbamate] | 0.95 µM
Cn1cnc(COC(=O)NC2CCc3c2c(C2CCC2)n(C)c3C(=O)Nc2ccc(F)c(Cl)c2)n1 (single isomer, unassigned) [Compound 96, (1-Methyl-1H-1,2,4-triazol-3-yl)methyl (1-((3-chloro-4-fluorophenyl)carbamoyl)-3-cyclobutyl-2-methyl-2,4,5,6-tetrahydrocyclopenta[c]pyrrol-4-yl)carbamate] | 0.42 µM
Cn1cnc(COC(=O)NC2CCc3c2c(C2CCC2)n(C)c3C(=O)Nc2ccc(F)c(Cl)c2)n1 (single isomer, unassigned) [Compound 97, (1-Methyl-1H-1,2,4-triazol-3-yl)methyl (1-((3-chloro-4-fluorophenyl)carbamoyl)-3-cyclobutyl-2-methyl-2,4,5,6-tetrahydrocyclopenta[c]pyrrol-4-yl)carbamate] | ≥ 25 µM
Cn1c(C(=O)Nc2ccc(F)c(Cl)c2)c2c(c1C1CC1)C(NC(=O)OCc1nc[nH]n1)CC2 (single isomer, unassigned) [Compound 98, (1H-1,2,4-Triazol-3-yl)methyl (1-((3-chloro-4-fluorophenyl)carbamoyl)-3-cyclopropyl-2-methyl-2,4,5,6-tetrahydrocyclopenta[c]pyrrol-4-yl)carbamate] | 15 µM
Cn1c(C(=O)Nc2ccc(F)c(Cl)c2)c2c(c1C1CC1)C(NC(=O)OCc1nc[nH]n1)CC2 (single isomer, unassigned) [Compound 99, (1H-1,2,4-Triazol-3-yl)methyl (1-((3-chloro-4-fluorophenyl)carbamoyl)-3-cyclopropyl-2-methyl-2,4,5,6-tetrahydrocyclopenta[c]pyrrol-4-yl)carbamate] | 0.33 µM
C#CCOC(=O)NC1CCc2c1cn(C)c2C(=O)Nc1ccc(F)c(Cl)c1 (single isomer, unassigned) [Compound 101, Prop-2-yn-1-yl (1-((3-chloro-4-fluorophenyl)carbamoyl)-2-methyl-2,4,5,6-tetrahydrocyclopenta[c]pyrrol-4-yl)carbamate] | 1.6 µM
C#CCOC(=O)NC1CCc2c1cn(C)c2C(=O)Nc1ccc(F)c(Cl)c1 (single isomer, unassigned) [Compound 102, Prop-2-yn-1-yl (1-((3-chloro-4-fluorophenyl)carbamoyl)-2-methyl-2,4,5,6-tetrahydrocyclopenta[c]pyrrol-4-yl)carbamate] | 0.02 µM
Cn1c(Cl)c2c(c1C(=O)Nc1ccc(F)c(Cl)c1)CCC2NC(=O)OCc1nc[nH]n1 (single isomer, unassigned) [Compound 104, (1H-1,2,4-Triazol-3-yl)methyl (3-chloro-1-((3-chloro-4-fluorophenyl)carbamoyl)-2-methyl-2,4,5,6-tetrahydrocyclopenta[c]pyrrol-4-yl)carbamate] | 1.9 µM
Cn1c(Cl)c2c(c1C(=O)Nc1ccc(F)c(Cl)c1)CCC2NC(=O)OCc1nc[nH]n1 (single isomer, unassigned) [Compound 105, (1H-1,2,4-Triazol-3-yl)methyl (3-chloro-1-((3-chloro-4-fluorophenyl)carbamoyl)-2-methyl-2,4,5,6-tetrahydrocyclopenta[c]pyrrol-4-yl)carbamate] | 0.01 µM
Cn1c(Cl)c2c(c1C(=O)Nc1ccc(F)c(Cl)c1)CCC2NC(=O)OCc1cn[nH]n1 (single isomer, unassigned) [Compound 106, (2H-1,2,3-Triazol-4-yl)methyl (3-chloro-1-((3-chloro-4-fluorophenyl)carbamoyl)-2-methyl-2,4,5,6-tetrahydrocyclopenta[c]pyrrol-4-yl)carbamate] | 1.4 µM
Cn1c(Cl)c2c(c1C(=O)Nc1ccc(F)c(Cl)c1)CCC2NC(=O)OCc1cn[nH]n1 (single isomer, unassigned) [Compound 107, (2H-1,2,3-Triazol-4-yl)methyl (3-chloro-1-((3-chloro-4-fluorophenyl)carbamoyl)-2-methyl-2,4,5,6-tetrahydrocyclopenta[c]pyrrol-4-yl)carbamate] | 0.01 µM

Same assay, conditions: Hepatitis B virus, HepDE19, 168 h, HepDE19 cells, Tet-free medium, 7 day-incubation, rcDNA measured by Quantigene 2.0 bDNA assay, top concentration 25 μM; read-out: DE-19 bDNA EC50

SMILES | EC50
Cn1cnc(CNC(=O)NC2CCCc3c2cn(C)c3C(=O)Nc2ccc(F)c(Cl)c2)n1 (single isomer, unassigned) [Compound 84, N-(3-Chloro-4-fluorophenyl)-2-methyl-4-(3-((1-methyl-1H-1,2,4-triazol-3-yl)methyl)ureido)-4,5,6,7-tetrahydro-2H-isoindole-1-carboxamide] | 0.34 µM
Cn1cc2c(c1C(=O)Nc1ccc(F)c(Cl)c1)CCCC2NC(=O)OCc1nc[nH]n1 (single isomer, unassigned) [Compound 88, (1H-1,2,4-Triazol-3-yl)methyl (1-((3-chloro-4-fluorophenyl)carbamoyl)-2-methyl-4,5,6,7-tetrahydro-2H-isoindol-4-yl)carbamate] | 0.51 µM
Cc1c2c(c(C(=O)Nc3ccc(F)c(Cl)c3)n1C)CCCC2NC(=O)OCc1ncn(C)n1 (single isomer, unassigned) [Compound 92, (1-Methyl-1H-1,2,4-triazol-3-yl)methyl (1-((3-chloro-4-fluorophenyl)carbamoyl)-2,3-dimethyl-4,5,6,7-tetrahydro-2H-isoindol-4-yl)carbamate] | 0.53 µM
Cn1cnc(COC(=O)NC2CCCc3c2c(Cl)n(C)c3C(=O)Nc2ccc(F)c(Cl)c2)n1 (single isomer, unassigned) [Compound 94, (1-Methyl-1H-1,2,4-triazol-3-yl)methyl (3-chloro-1-((3-chloro-4-fluorophenyl)carbamoyl)-2-methyl-4,5,6,7-tetrahydro-2H-isoindol-4-yl)carbamate] | 0.44 µM

Same assay, conditions: read-out: DE-19 bDNA EC50; HepDE19 cells, Tet-free medium, 7 day-incubation, rcDNA measured by Quantigene 2.0 bDNA assay, top concentration 25 μM

SMILES | EC50
COC(=O)NC1CCCCc2c1cn(C)c2C(=O)Nc1ccc(F)c(Cl)c1 (single isomer, unassigned) [Compound 85, Methyl (1-((3-chloro-4-fluorophenyl)carbamoyl)-2-methyl-2,4,5,6,7,8-hexahydrocyclohepta[c]pyrrol-4-yl)carbamate] | 1.5 µM
Cn1cnc(COC(=O)NC2CCc3c2c(-c2ccccc2)n(C)c3C(=O)Nc2ccc(F)c(Cl)c2)n1 (single isomer, unassigned) [Compound 108, (1-Methyl-1H-1,2,4-triazol-3-yl)methyl (1-((3-chloro-4-fluorophenyl)carbamoyl)-2-methyl-3-phenyl-2,4,5,6-tetrahydrocyclopenta[c]pyrrol-4-yl)carbamate] | 5.2 µM
Cn1cnc(COC(=O)NC2CCc3c2c(-c2ccccc2)n(C)c3C(=O)Nc2ccc(F)c(Cl)c2)n1 (single isomer, unassigned) [Compound 109, (1-Methyl-1H-1,2,4-triazol-3-yl)methyl (1-((3-chloro-4-fluorophenyl)carbamoyl)-2-methyl-3-phenyl-2,4,5,6-tetrahydrocyclopenta[c]pyrrol-4-yl)carbamate] | 24 µM
CC#CCOC(=O)NC1CCc2c1cn(C)c2C(=O)Nc1ccc(F)c(Cl)c1 (single isomer, unassigned) [Compound 110, But-2-yn-1-yl (1-((3-chloro-4-fluorophenyl)carbamoyl)-2-methyl-2,4,5,6-tetrahydrocyclopenta[c]pyrrol-4-yl)carbamate] | 1.5 µM
CC#CCOC(=O)NC1CCc2c1cn(C)c2C(=O)Nc1ccc(F)c(Cl)c1 (single isomer, unassigned) [Compound 111, But-2-yn-1-yl (1-((3-chloro-4-fluorophenyl)carbamoyl)-2-methyl-2,4,5,6-tetrahydrocyclopenta[c]pyrrol-4-yl)carbamate] | 0.06 µM
CCC#CCOC(=O)NC1CCc2c1cn(C)c2C(=O)Nc1ccc(F)c(Cl)c1 (single isomer, unassigned) [Compound 112, Pent-2-yn-1-yl(1-((3-chloro-4-fluorophenyl)carbamoyl)-2-methyl-2,4,5,6-tetrahydrocyclopenta[c]pyrrol-4-yl)carbamate] | 5.7 µM
